Structures are written as SMILES. Read-outs that look alike come from different tables or passages of the source.

One experiment has as its target Syk kinase (Homo sapiens, UniProt P43405). Nature of the experiment: cell-based Syk assay. The settings on record: read-out: IC50, inhibition of Syk kinase.
Experiment [1] deals with JAK kinases (JAK1 and JAK3). Kind of experiment: JAK inhibition: IL-4-stimulated CD23 upregulation in human Ramos B-cells, FACS. It is filed as cell-based. The note with it: IL-4 stimulated Ramos B-cells, read-out: IC50, inhibition of JAK kinases in cellular assay. On the procedure:
JAK inhibition was tested in human Ramos B-cells activated with IL-4. Twenty to 24 hours post stimulation, the cells are stained for upregulation of CD23 and analyzed by FACS. Stimulation of the B-cells with IL-4 leads to the activation of the JAK/STAT pathway through phosphorylation of the JAK kinase JAK1 and JAK3, which in turn phosphorylate and activate transcription of factor […].
For the assay, human Ramos B-cells (ATCC, Catalog No. CRL-1596) are cultured in RPMI 1640 medium (Cellgro, Catalog No. 10-040-CM) containing 10% fetal bovine serum (JRH, Catalog No. 12106-500M) according to the propagation protocol supplied with the cells, and maintained at a density of approximately 3.5×10^5 cells/ml. The day before the assay, the cells are diluted to 3.5×10^5 cells/ml to insure they are in the logarithmic growth phase. The cells are spun down, and suspended in RPMI 1640 medium containing 5% fetal bovine serum to a density of 3.5×10^4 cells/ml and aliquots dispensed into a 96-well tissue culture plate. Cells are incubated with test compound (dissolved in DMSO) or DMSO (control) for 1 hr at 37° C. and then stimulated with IL-4 (Pepotech, Catalog No. 200-04) for 20-24 hours (final concentration is 50 Units/ml). Cells are then spun down, stained with anti-CD23-PE antibody (BD Pharmigen, Catalog No. 555711) and analyzed by FACS.

A further experiment deals with T1, Axl kinase (Homo sapiens, UniProt P30530).
T1 construct: endogenous in cells; host or cells: HeLa cells
T1 sequence (P30530 26-894): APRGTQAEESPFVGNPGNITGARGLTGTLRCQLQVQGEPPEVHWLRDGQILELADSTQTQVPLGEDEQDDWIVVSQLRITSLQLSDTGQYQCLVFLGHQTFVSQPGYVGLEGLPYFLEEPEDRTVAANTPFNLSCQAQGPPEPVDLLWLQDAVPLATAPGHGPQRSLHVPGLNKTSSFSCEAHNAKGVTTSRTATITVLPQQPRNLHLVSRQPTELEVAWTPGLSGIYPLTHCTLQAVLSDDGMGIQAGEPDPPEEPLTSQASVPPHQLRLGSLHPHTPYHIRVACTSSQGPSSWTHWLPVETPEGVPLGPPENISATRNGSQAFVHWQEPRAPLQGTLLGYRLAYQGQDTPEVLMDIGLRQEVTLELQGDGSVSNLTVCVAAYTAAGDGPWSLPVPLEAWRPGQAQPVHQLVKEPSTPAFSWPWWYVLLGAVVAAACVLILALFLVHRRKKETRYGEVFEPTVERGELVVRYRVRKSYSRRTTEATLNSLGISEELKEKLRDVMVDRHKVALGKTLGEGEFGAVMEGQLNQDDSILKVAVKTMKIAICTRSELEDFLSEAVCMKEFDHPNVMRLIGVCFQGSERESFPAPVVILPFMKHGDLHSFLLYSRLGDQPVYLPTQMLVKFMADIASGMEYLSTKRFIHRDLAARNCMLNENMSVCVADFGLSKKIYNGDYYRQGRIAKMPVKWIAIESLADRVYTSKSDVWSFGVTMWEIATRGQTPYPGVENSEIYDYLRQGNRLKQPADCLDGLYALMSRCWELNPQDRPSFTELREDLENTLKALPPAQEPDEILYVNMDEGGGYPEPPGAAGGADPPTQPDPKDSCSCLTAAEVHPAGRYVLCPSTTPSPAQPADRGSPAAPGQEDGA
Kind of experiment: Phospho-Akt in-cell Western assay (Axl antibody cross-linking, Hela cells). The settings on record: phospho-Akt readout, read-out: IC50, inhibition of Axl kinase. The class given is cell-based. The procedure:
The compounds of the invention were tested in the following assay for their ability to inhibit Axl activity.
Phospho-Akt in-Cell Western Assay
Starvation medium: For Axl stimulation: 0.5% FCS (fetal calf serum) in DMEM, plus Axl/Fc (extracellular domain of AXL fused to immunoglobulin Fc region) (R&D, 154-AL) 500 ng/mL.
Axl antibody cross-linking: • 1st: Mouse anti-Axl (R&D, MAB 154). • 2nd: Biotin-SP-conjugated AffiniPure goat anti-mouse IgG (H+L) (Jackson ImmunoResearch #115-065-003).
Primary antibody: Rabbit anti-human Phospho-Akt antibody (Cell Signaling 9271): 1×250 diluted in blocking buffer.
Secondary antibody: HRP (horse radish peroxidase)-conjugated Goat anti-Rabbit secondary, stock solution: Jackson lmmunoResearch (Goat anti-Rabbit HRP, #111-035-144) 1:1 diluted in glycerol, store at −20° C. The working solution: 1×2000 dilution of stock in blocking buffer.
A 96 well TC (tissue culture treated) plate was coated with 10 μg/mL poly-L-Lysine at 37° C. for 30 min, washed twice with PBS, and air-dried for 5 minutes before cells were added. Hela cells were seeded at 10,000 cells/well and the cells were starved in 100 μL starvation medium containing Axl/Fc for 24 hrs.
The cells were pre-treated with test compounds by adding 100 μL of 2× test compound to the starvation medium on the cells. The cells were incubated at 37° C. for 1 hr before stimulation.
The cells were stimulated by Axl-antibody cross-linking as follows: A 5× 1st/2nd Axl antibody mixture was made (37.5 μg/mL 1st/100 μg/mL 2nd) in starvation medium and nutated at 4° C. with thorough mixing for 1-2 hours for clustering. The resulting mix was warmed to 37° C. 50 μL of 5× Axl 1st/2nd of antibody cluster was added to the cells and the cells were incubated at 37° C. for 5 min.
After 5 minutes stimulation, the plate was flicked to remove medium and the plate was tapped onto paper towels. Formaldehyde (4.0% in PBS, 100 μL) was added to fix the cells and the cells were incubated at ambient temperature for 20 min without shaking.
The cells were washed with a plate washer buffer to remove the formaldehyde solution. The plate was flicked to remove excess wash buffer and tapped onto paper towels. Quenching buffer (100 μL) was added to each well and the cells were incubated at ambient temperature for 20 minutes without shaking.
The cells were washed with a plate washer buffer to remove the quenching buffer. Blocking buffer (100 μL) was added and the cells were incubated at ambient temperature for at least an hour with gentle shaking.
The cells were washed with a plate washer buffer and diluted primary antibody (50 μL) was added to each well (blocking buffer was added to the negative control wells instead). The plates were incubated overnight at 4° C. with gentle shaking.
The wash buffer was removed, diluted secondary antibody (100 μL) was added, and the cells were incubated at ambient temperature for 1 hour with gentle shaking. During the incubation, the chemiluminescent reagent was brought to ambient temperature.
The secondary antibody was removed by washing the cells 1× with wash buffer, 1× with PBS by plate washer. The PBS was removed from the plate and the chemiluminescent reagent (80 μL: 40 μL A and 40 μL B) was added to each well at ambient temperature.
The resulting chemiluminescence was read with a Luminomitor within 10 minutes to minimize changes in signal intensity. After reading the chemiluminescence, the cells were washed 1× with wash buffer and 1× with PBS by plate washer. The plate was tapped onto paper towels to remove excess liquid from wells and air-dried at ambient temperature for 5 minutes.
Crystal Violet working solution (60 μL) was added to each well and the cells were incubated at ambient temperature for 30 min. The crystal violet solution was removed, and the wells were rinsed with PBS, then washed 3× with PBS (200 μL) for 5 minutes each.
5% SDS solution (70 μL) was added to each well and the cells were incubated on a shaker for 30 min at ambient temperature. […]

For the compound `CC(C)Oc1cccc(Nc2nc(NC3C4C=CC(C4)C3C(=O)N(C)C)c3nc[nH]c3n2)c1` (racemic) [Compound 140], the IC50 (usually the concentration at which inhibition is half-maximal) at Syk kinase is over 10 µM; in experiment [1], under 5 µM. As for `Cc1cccc(Nc2nc(NC3C4C=CC(C4)C3C(=O)N(C)C)c3nc[nH]c3n2)c1` (racemic) [Compound 141], the IC50 on Syk kinase is under 10 µM; in experiment [1], under 5 µM. On to `COc1cccc(Nc2nc(NC3C4C=CC(C4)C3C(=O)N(C)C)c3nc[nH]c3n2)c1` (racemic) [Compound 142], for which the IC50 on Syk kinase is under 10 µM; in experiment [1] it was over 10 µM. The like results for `CSc1cccc(Nc2nc(NC3C4C=CC(C4)C3C(=O)N(C)C)c3nc[nH]c3n2)c1` (racemic) [Compound 143] were, in that order, under 10 µM and under 5 µM.

Consider `CN(C)C(=O)C1C2C=CC(C2)C1Nc1nc(Nc2cccc(S(N)(=O)=O)c2)nc2[nH]cnc12` (racemic) [Compound 144], for which the IC50 at Syk kinase was under 10 µM; in experiment [1] it was under 5 µM. For `CN(C)C(=O)C1C2C=CC(C2)C1Nc1nc(Nc2ccc(N3CCCCC3)cc2)nc2[nH]cnc12` (racemic) [Compound 145], the values for the IC50 (on Syk kinase; in experiment [1]) were under 10 µM and under 5 µM, respectively. For `CN(C)C(=O)C1C2C=CC(C2)C1Nc1nc(Nc2ccc(Cc3ccncc3)cc2)nc2[nH]cnc12` (racemic) [Compound 146] the same measures were under 10 µM and under 5 µM. Turning to `NC(=O)C1C2CC(C1Nc1nc(Nc3ccc(N4CCOCC4)cc3)nc3[nH]ccc13)C1ON=C(c3ccccc3)C21` (racemic) [Compound 219, Racemic-(5-exo,6-exo)-N4-(4,7-methano-1,2-benzisoxazol-3a,4,5,6,7,7a-hexahydro-3-phenyl-5-aminocarbonyl-6-yl)-N2-[4-(4-morpholinyl)phenyl]-1H-pyrrolo[2,3-d]pyrimidine-2,4-diamine], the IC50 was over 10 µM on Syk kinase, over 10 µM on Axl kinase and under 10 µM in experiment [1]. As for `CONC(=O)Cc1ccc(Nc2nc(NC3C4C=CC(C4)C3C(N)=O)c3cc[nH]c3n2)cc1` (racemic) [Compound 227, Racemic-(2-exo,3-exo)-N4-(3-aminocarbonylbicyclo [2.2.1]hept-5-en-2-yl)-N2-[4-(N-methoxy)-aminocarbonyl-methylphenyl]-1H-pyrrolo[2,3-d]pyrimidine-2,4-diamine], the IC50 is under 10 µM on Syk kinase and over 10 µM on Axl kinase. The like results for `CONC(=O)Cc1ccc(Nc2nc(NC3C4C=CC(C4)C3C(N)=O)c3nc[nH]c3n2)cc1` (racemic) [Compound 228, Racemic-(2-exo,3-exo-)-N6-(3-aminocarbonylbicyclo [2.2.1]hept-5-en-2-yl)-N2-[4-(N-methoxy)-aminocarbonyl-inethylphenyl]-1H-purine-2,6-diamine] were, in that order, over 10 µM and over 10 µM. For `CONC(=O)Cc1cccc(Nc2nc(NC3C4C=CC(C4)C3C(N)=O)c3nc[nH]c3n2)c1` (racemic) [Compound 230, Racemic-(2-exo,3-exo-)-N6-(3-aminocarbonylbicyclo [2.2.1]hept-5-en-2-yl)-N2-[3-(N-methoxy)-aminocarbonyl-methylphenyl]-1H-purine-2,6-diamine] the same measures were under 5 µM and over 10 µM.

`NC(=O)C1C2C=CC(C2)C1Nc1nc(Nc2ccc(OCCN3CCCC3)c(Cl)c2)nc2[nH]cnc12` (racemic) [Compound 235, Racemic-(2-exo,3-exo-)-N6-(3-aminocarbonylbicyclo [2.2.1]hept-5-en-2-yl)-N2-[3-chloro-4-[2-(1-pyrrolidinyl)ethoxy]phenyl]-1H-purine-2,6-diamine]: the IC50 at Syk kinase is under 5 µM. Turning to `NC(=O)C1C2C=CC(C2)C1Nc1nc(Nc2ccc(OCCN3CCCC3)c(F)c2)nc2[nH]cnc12` (racemic) [Compound 236, Racemic-(2-exo,3-exo-)-N6-(3-aminocarbonylbicyclo [2.2.1]hept-5-en-2-yl)-N2-[3-fluoro-4-[2-(1-pyrrolidinyl)ethoxy]phenyl]-1H-purine-2,6-diamine], the IC50 at Syk kinase was under 10 µM.

Turning to `Cc1csc2c(NC3C4C=CC(C4)C3C(N)=O)nc(Nc3ccc(OCCN4CCCC4)c(F)c3)nc12` (racemic) [Compound 241, Racemic-(2-exo,3-exo-)-7-methyl-N4-(3-aminocarbonylbicyclo [2.2.1]hept-5-en-2-yl)-N2-[3-fluoro-4-[2-(1-pyrrolidinyl)ethoxy]phenyl]-thieno[3,2-d]pyrimidine-2,4-diamine], the IC50 (on Axl kinase; in experiment [1]) was under 5 µM throughout. For the compound `Cc1csc2c(NC3C4C=CC(C4)C3C(N)=O)nc(Nc3ccc(S(N)(=O)=O)cc3)nc12` (racemic) [Compound 242, Racemic-(2-exo,3-exo-)-7-methyl-N4-(3-aminocarbonylbicyclo [2.2.1]hept-5-en-2-yl)-N2-(4-aminosulfonyl)phenyl-thieno[3,2-d]pyrimidine-2,4-diamine], the IC50 at Axl kinase is over 10 µM; in experiment [1], under 5 µM.

Take `CNC(=O)COc1cccc(Nc2nc(N[C@H]3[C@@H](C(N)=O)[C@@H]4C=C[C@H]3C4)c3nc[nH]c3n2)c1` [Compound 110]: the IC50 (at Syk kinase; in experiment [1] (unit printed MM)) was under 10 µM each time.

The values above are taken from patent US7601713B2, “Kinase inhibitors and their uses” (Rigel Pharmaceuticals, Inc., priority 2005, dated 2009).
